Experimental findings from PMC6917776, “Discovery of a chemical probe for PRDM9” (Nature Communications, 2019) are described below.

Holding throughout (experiment): Methyltransferase selectivity assay (SPA)
Type in all cases: biochemical

The target in one assay is T1, SETDB1 (Homo sapiens, UniProt Q15047).
T1 construct: purchased Structural Genomics Consortium (SGC Toronto) in-house methyltransferase panel

The target in a further assay is T2, PRMT9 (Homo sapiens, UniProt Q6P2P2).
T2 construct: purchased Structural Genomics Consortium (SGC Toronto) in-house methyltransferase panel
T2 sequence (Q6P2P2 1-845): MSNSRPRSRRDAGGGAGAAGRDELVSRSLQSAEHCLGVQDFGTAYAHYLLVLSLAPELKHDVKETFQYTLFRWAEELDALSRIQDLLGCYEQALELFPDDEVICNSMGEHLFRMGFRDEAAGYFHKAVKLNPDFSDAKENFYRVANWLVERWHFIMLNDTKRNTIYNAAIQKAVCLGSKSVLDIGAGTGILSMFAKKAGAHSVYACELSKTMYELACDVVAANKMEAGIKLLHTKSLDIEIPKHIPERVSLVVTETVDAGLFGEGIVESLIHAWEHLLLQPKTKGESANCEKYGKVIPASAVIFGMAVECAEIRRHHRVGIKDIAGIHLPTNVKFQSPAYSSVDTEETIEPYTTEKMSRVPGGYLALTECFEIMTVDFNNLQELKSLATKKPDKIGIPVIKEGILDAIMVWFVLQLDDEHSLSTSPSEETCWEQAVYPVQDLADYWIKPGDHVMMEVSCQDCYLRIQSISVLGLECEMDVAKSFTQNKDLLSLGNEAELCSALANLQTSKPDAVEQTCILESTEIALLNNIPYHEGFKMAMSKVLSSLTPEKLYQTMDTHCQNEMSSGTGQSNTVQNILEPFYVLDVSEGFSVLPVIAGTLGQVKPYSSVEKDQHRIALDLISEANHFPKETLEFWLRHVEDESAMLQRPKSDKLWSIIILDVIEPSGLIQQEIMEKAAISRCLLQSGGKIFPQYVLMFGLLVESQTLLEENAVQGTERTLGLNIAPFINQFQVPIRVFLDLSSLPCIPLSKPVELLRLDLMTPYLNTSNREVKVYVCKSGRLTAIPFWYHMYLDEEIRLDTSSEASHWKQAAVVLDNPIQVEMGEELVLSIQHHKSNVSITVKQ

A further assay has as its target T3, PRMT8 (Homo sapiens, UniProt Q9NR22).
T3 construct: purchased Structural Genomics Consortium (SGC Toronto) in-house methyltransferase panel
The following applies: for Activity % / activity at 1 µM: 1µM compound; for Activity %: Exp1, Exp2, 1 µM; for activity at 10 µM: 10µM compound. The procedure, abridged: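 Radiometric 3H-SAM assays at SAM and substrate concentrations near each enzyme's apparent Km. PRMT8 and SETD2 methylated biotinylated substrate, read by scintillation proximity after guanidine quench. ASH1L and NSD3 methylated nucleosome substrate for 1 h at 23°C, then TCA precipitation on filters and scintillation counting.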

A further assay has as its target T4, SUV420H1 (Homo sapiens, UniProt Q4FZB7).
T4 construct: purchased Structural Genomics Consortium (SGC Toronto) in-house methyltransferase panel

For a further assay, the target named is T5, SUV420H2 (Homo sapiens, UniProt Q86Y97).
T5 construct: purchased Structural Genomics Consortium (SGC Toronto) in-house methyltransferase panel

The target of a further assay is T6, SETD8 (Homo sapiens, UniProt Q9NQR1).
T6 construct: purchased Structural Genomics Consortium (SGC Toronto) in-house methyltransferase panel
T6 sequence (Q9NQR1 1-393): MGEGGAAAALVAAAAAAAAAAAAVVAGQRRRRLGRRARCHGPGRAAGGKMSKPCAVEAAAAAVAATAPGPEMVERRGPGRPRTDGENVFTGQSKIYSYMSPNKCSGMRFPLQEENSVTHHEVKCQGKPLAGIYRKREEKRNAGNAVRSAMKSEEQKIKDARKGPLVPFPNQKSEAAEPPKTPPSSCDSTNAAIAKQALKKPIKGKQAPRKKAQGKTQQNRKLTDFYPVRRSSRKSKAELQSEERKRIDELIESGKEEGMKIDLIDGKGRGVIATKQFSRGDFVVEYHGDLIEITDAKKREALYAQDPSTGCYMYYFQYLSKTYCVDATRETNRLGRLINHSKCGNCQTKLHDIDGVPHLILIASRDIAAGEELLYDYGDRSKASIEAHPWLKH

Where [1] appears, read: 1µM compound, Exp1, Exp2, read-out: Activity %.
Where [2] appears, read: 10µM compound, Exp1, Exp2, 10 µM.
Where [3] appears, read: 10µM compound, Exp1, Exp2, read-out: Activity %.
The mark [4] stands for this setting: Exp1, Exp2, read-out: Activity %.

Each structure is given as a SMILES string. Several values for one entry are separate records, joined by “and”; a condition that tells them apart may be missing. Equal entries are not always repeated. Where two headings read alike, the source gives them in different places.

T5 sequence (Q86Y97 whole entry): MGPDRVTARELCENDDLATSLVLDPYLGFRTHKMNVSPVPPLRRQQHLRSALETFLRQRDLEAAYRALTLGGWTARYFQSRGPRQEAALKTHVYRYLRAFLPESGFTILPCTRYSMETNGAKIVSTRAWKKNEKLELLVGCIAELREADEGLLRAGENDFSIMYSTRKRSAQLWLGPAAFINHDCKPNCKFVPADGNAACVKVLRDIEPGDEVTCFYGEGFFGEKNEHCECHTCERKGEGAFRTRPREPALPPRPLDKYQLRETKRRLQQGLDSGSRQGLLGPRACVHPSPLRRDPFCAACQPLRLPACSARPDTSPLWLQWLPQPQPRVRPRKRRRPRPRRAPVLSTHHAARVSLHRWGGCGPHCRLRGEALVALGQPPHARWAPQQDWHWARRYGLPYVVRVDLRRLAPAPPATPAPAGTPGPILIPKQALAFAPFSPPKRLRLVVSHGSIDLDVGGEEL
T4 sequence (Q4FZB7 whole entry): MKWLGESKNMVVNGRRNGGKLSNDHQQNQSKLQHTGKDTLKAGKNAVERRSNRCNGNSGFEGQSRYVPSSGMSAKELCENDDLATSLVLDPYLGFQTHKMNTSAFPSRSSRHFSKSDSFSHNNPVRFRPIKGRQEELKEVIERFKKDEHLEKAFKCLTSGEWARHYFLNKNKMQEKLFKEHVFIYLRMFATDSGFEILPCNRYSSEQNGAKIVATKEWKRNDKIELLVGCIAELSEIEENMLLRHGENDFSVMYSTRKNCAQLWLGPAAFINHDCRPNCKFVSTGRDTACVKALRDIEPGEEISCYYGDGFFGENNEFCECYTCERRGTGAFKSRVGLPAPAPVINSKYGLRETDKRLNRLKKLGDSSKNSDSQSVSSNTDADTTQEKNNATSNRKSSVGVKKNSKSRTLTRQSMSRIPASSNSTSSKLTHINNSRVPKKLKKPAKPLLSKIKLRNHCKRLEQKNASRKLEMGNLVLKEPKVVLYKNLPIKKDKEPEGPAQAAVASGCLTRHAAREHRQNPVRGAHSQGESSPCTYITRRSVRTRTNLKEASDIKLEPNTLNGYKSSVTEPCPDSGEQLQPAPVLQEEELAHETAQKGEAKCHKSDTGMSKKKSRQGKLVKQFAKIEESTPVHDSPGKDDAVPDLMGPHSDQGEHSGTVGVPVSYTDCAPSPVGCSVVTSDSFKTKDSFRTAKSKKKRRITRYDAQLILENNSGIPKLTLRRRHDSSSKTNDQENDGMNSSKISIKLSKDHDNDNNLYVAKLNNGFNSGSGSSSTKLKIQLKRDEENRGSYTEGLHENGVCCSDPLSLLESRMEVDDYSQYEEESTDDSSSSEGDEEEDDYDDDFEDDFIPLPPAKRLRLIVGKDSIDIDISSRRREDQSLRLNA
T3 sequence (Q9NR22 whole entry): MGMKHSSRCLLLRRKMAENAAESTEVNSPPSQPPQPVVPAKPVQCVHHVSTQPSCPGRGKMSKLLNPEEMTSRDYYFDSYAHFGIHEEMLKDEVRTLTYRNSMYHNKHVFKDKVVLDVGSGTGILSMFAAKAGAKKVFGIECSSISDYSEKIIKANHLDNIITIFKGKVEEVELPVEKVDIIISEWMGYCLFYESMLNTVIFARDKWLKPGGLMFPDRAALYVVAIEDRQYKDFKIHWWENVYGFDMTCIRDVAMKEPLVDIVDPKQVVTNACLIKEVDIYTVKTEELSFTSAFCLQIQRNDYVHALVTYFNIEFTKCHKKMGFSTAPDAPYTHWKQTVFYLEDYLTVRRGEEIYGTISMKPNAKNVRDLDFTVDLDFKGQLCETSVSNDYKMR

In the case of `COc1cc(OC)cc(-c2noc(N3CCN(C)C4(CCN(c5ccnc(C)c5)CC4)C3)n2)c1` [MRK-740], the Activity % at SETDB1 (1µM compound, Exp1, Exp2, 1 µM) was 84%; at SETDB1 (setting [2]) it was 96%; at PRMT9 (setting [2]), 89% and 114%; at PRMT8, 95%; at SUV420H1 (1µM compound, Exp1, Exp2, 1 µM) it was 102%; on SUV420H1 (setting [2]), 103%. Moreover, the Activity % came out at 95% on SUV420H2 (1µM compound, Exp1, Exp2, 1 µM) and 103% on SUV420H2 (setting [2]). Besides, the activity at 1 µM at SETDB1 (setting [1]) turned out to be 81%; at PRMT9 (setting [1]), 100%; at PRMT8 (setting [4]) it was 104%; at SUV420H1 (setting [1]), 101%; at SUV420H2 (setting [1]) it was 97%; on SETD8 (setting [1]), 99%. Also, the activity at 10 µM at SETDB1 (setting [3]) is 86%; on PRMT8 (setting [4]), 105%; on SUV420H1 (setting [3]), 86%; at SUV420H2 (setting [3]) it was 100%; at SETD8 (setting [3]) it was 101%.

Turning to `COc1cc(OC)cc(-c2noc(N3CCN(C)C4(CCN(c5ccccc5)CC4)C3)n2)c1` [MRK-740 -NC], the activity at 1 µM on SETDB1 (1µM compound, Exp1, Exp2) was found to be 104%; on PRMT9 (1µM compound, Exp1, Exp2) it was 102%; at PRMT8 (Exp1, Exp2), 97%; at SUV420H1 (1µM compound, Exp1, Exp2), 103%; at SUV420H2 (1µM compound, Exp1, Exp2), 106%; at SETD8 (1µM compound, Exp1, Exp2), 107%. Further, the activity at 10 µM at SETDB1 (10µM compound, Exp1, Exp2) stood at 101%; at PRMT9 (10µM compound, Exp1, Exp2), 98%; on PRMT8 (Exp1, Exp2), 98%; at SUV420H1 (10µM compound, Exp1, Exp2), 99%; on SUV420H2 (10µM compound, Exp1, Exp2) it was 98%; at SETD8 (10µM compound, Exp1, Exp2), 94%. For the same compound, the Activity % on SETDB1 (setting [2]) was determined as 86%; at PRMT9 (1µM compound, Exp1, Exp2, 1 µM) it was 106%; at PRMT8 it was 104%; at SUV420H1 (1µM compound, Exp1, Exp2, 1 µM), 105%; on SUV420H1 (setting [2]) it was 95%; at SUV420H2 (setting [2]) it was 103%. The Activity % on SETD8 (1µM compound, Exp1, Exp2, 1 µM) stood at 95%; on SETD8 (setting [2]) it was 92%.
